Measurements reported in the CheMixHub viscosity set.

Test: xn = mol fraction of the nth substance listed

NC=O + OCCO
viscosity [mPa·s]
Details	293.15 K	298.15 K	303.15 K	308.15 K	313.15 K	318.15 K
100 kPa, x1 = 0.1003	16.54	13.52	11.1	–	–	–
100 kPa, x1 = 0.2002	13.55	10.99	9.12	–	–	–
100 kPa, x1 = 0.299	11.22	8.878	7.232	–	–	–
100 kPa, x1 = 0.3975	9.55	7.61	6.151	–	–	–
100 kPa, x1 = 0.5027	7.99	6.541	5.273	–	–	–
100 kPa, x1 = 0.6014	6.85	5.592	4.603	–	–	–
100 kPa, x1 = 0.7027	5.827	4.71	3.99	–	–	–
100 kPa, x1 = 0.7999	4.96	4.15	3.647	–	–	–
100 kPa, x1 = 0.9014	4.413	3.817	3.402	–	–	–
101 kPa, x1 = 0.0612	17.53	14.25	11.64	9.225	7.801	6.584
101 kPa, x1 = 0.1204	15.35	12.26	9.875	7.684	6.506	5.505
101 kPa, x1 = 0.1859	13.53	10.7	8.482	6.488	5.384	4.554
101 kPa, x1 = 0.3302	10.35	8.058	6.301	4.664	3.8	3.156
101 kPa, x1 = 0.4517	8.301	6.445	5.002	3.702	3.055	2.554
101 kPa, x1 = 0.5643	6.692	5.306	4.172	3.206	2.716	2.379
101 kPa, x1 = 0.6596	5.526	4.526	3.708	2.947	2.556	2.322
101 kPa, x1 = 0.7454	4.685	4.003	3.403	2.808	2.476	2.292
101 kPa, x1 = 0.8195	4.186	3.721	3.234	2.753	2.45	2.271
101 kPa, x1 = 0.8883	3.908	3.526	3.126	2.727	2.438	2.251
101 kPa, x1 = 0.9491	3.714	3.39	3.025	2.692	2.425	2.236
101 kPa, x2 = 0.0761	–	–	–	2.392	–	–
101 kPa, x2 = 0.1538	–	–	–	2.439	–	–
101 kPa, x2 = 0.2311	–	–	–	2.487	–	–
101 kPa, x2 = 0.3245	–	–	–	2.636	–	–
101 kPa, x2 = 0.4125	–	–	–	2.996	–	–
101 kPa, x2 = 0.5236	–	–	–	4.026	–	–
101 kPa, x2 = 0.6337	–	–	–	5.164	–	–
101 kPa, x2 = 0.7468	–	–	–	6.594	–	–
101 kPa, x2 = 0.8596	–	–	–	8.193	–	–

NC=O + CO
Details	viscosity [mPa·s]
298.15 K, 100 kPa, x1 = 0.04242	0.594
298.15 K, 100 kPa, x1 = 0.1098	0.672
298.15 K, 100 kPa, x1 = 0.1552	0.728
298.15 K, 100 kPa, x1 = 0.1966	0.784
298.15 K, 100 kPa, x1 = 0.2342	0.843
298.15 K, 100 kPa, x1 = 0.3571	1.06
298.15 K, 100 kPa, x1 = 0.4211	1.2
298.15 K, 100 kPa, x1 = 0.4775	1.33
298.15 K, 100 kPa, x1 = 0.5097	1.42
298.15 K, 100 kPa, x1 = 0.5776	1.6
298.15 K, 100 kPa, x1 = 0.6744	1.9
298.15 K, 100 kPa, x1 = 0.7135	2.03
298.15 K, 100 kPa, x1 = 0.8191	2.45
298.15 K, 100 kPa, x1 = 0.8522	2.6
298.15 K, 100 kPa, x1 = 0.9099	2.86
298.15 K, 101 kPa, x1 = 0.1	0.746
298.15 K, 101 kPa, x1 = 0.2	0.861
298.15 K, 101 kPa, x1 = 0.3	1.055
298.15 K, 101 kPa, x1 = 0.3966	1.247
298.15 K, 101 kPa, x1 = 0.4978	1.484
298.15 K, 101 kPa, x1 = 0.6	1.749
298.15 K, 101 kPa, x1 = 0.7	2.067
298.15 K, 101 kPa, x1 = 0.7988	2.431
298.15 K, 101 kPa, x1 = 0.902	2.874
303.15 K, 101.3 kPa, x1 = 0.0714	0.55
303.15 K, 101.3 kPa, x1 = 0.1586	0.63
303.15 K, 101.3 kPa, x1 = 0.2422	0.74
303.15 K, 101.3 kPa, x1 = 0.32	0.85
303.15 K, 101.3 kPa, x1 = 0.3836	0.95
303.15 K, 101.3 kPa, x1 = 0.5273	1.2
303.15 K, 101.3 kPa, x1 = 0.5975	1.4
303.15 K, 101.3 kPa, x1 = 0.6822	1.6
303.15 K, 101.3 kPa, x1 = 0.7619	1.8
303.15 K, 101.3 kPa, x1 = 0.8279	2
303.15 K, 101.3 kPa, x1 = 0.917	2.3
308.15 K, 101.3 kPa, x1 = 0.0714	0.51
308.15 K, 101.3 kPa, x1 = 0.1586	0.59
308.15 K, 101.3 kPa, x1 = 0.2422	0.68
308.15 K, 101.3 kPa, x1 = 0.32	0.78
308.15 K, 101.3 kPa, x1 = 0.3836	0.87
308.15 K, 101.3 kPa, x1 = 0.5273	1.1
308.15 K, 101.3 kPa, x1 = 0.5975	1.2
308.15 K, 101.3 kPa, x1 = 0.6822	1.4
308.15 K, 101.3 kPa, x1 = 0.7619	1.6
308.15 K, 101.3 kPa, x1 = 0.8279	1.8
308.15 K, 101.3 kPa, x1 = 0.917	2.1
313.15 K, 101 kPa, x1 = 0.1	0.584
313.15 K, 101 kPa, x1 = 0.2	0.685
313.15 K, 101 kPa, x1 = 0.3	0.818
313.15 K, 101 kPa, x1 = 0.3966	0.995
313.15 K, 101 kPa, x1 = 0.4978	1.116
313.15 K, 101 kPa, x1 = 0.6	1.307
313.15 K, 101 kPa, x1 = 0.7	1.538
313.15 K, 101 kPa, x1 = 0.7988	1.78
313.15 K, 101 kPa, x1 = 0.902	2.09
313.15 K, 101.3 kPa, x1 = 0.0714	0.48
313.15 K, 101.3 kPa, x1 = 0.1586	0.54
313.15 K, 101.3 kPa, x1 = 0.2422	0.63
313.15 K, 101.3 kPa, x1 = 0.32	0.72
313.15 K, 101.3 kPa, x1 = 0.3836	0.8
313.15 K, 101.3 kPa, x1 = 0.5273	1.02
313.15 K, 101.3 kPa, x1 = 0.5975	1.1
313.15 K, 101.3 kPa, x1 = 0.6822	1.3
313.15 K, 101.3 kPa, x1 = 0.7619	1.4
313.15 K, 101.3 kPa, x1 = 0.8279	1.6
313.15 K, 101.3 kPa, x1 = 0.917	1.9
318.15 K, 101.3 kPa, x1 = 0.0714	0.46
318.15 K, 101.3 kPa, x1 = 0.1586	0.51
318.15 K, 101.3 kPa, x1 = 0.2422	0.58
318.15 K, 101.3 kPa, x1 = 0.32	0.67
318.15 K, 101.3 kPa, x1 = 0.3836	0.73
318.15 K, 101.3 kPa, x1 = 0.5273	0.92
318.15 K, 101.3 kPa, x1 = 0.5975	1.01
318.15 K, 101.3 kPa, x1 = 0.6822	1.1
318.15 K, 101.3 kPa, x1 = 0.7619	1.3
318.15 K, 101.3 kPa, x1 = 0.8279	1.4
318.15 K, 101.3 kPa, x1 = 0.917	1.6
323.15 K, 101.3 kPa, x1 = 0.0714	0.42
323.15 K, 101.3 kPa, x1 = 0.1586	0.47
323.15 K, 101.3 kPa, x1 = 0.2422	0.54
323.15 K, 101.3 kPa, x1 = 0.32	0.6
323.15 K, 101.3 kPa, x1 = 0.3836	0.66
323.15 K, 101.3 kPa, x1 = 0.5273	0.8
323.15 K, 101.3 kPa, x1 = 0.5975	0.86
323.15 K, 101.3 kPa, x1 = 0.6822	0.96
323.15 K, 101.3 kPa, x1 = 0.7619	1.07
323.15 K, 101.3 kPa, x1 = 0.8279	1.2
323.15 K, 101.3 kPa, x1 = 0.917	1.3
